From patent publication US20190167711A1, “METHODS FOR DIAGNOSIS AND TREATMENT OF ACUTE LYMPHOBLASTIC LEUKEMIA” (MOR RESEARCH APPLICATIONS LTD., priority 2014, published 2019) come the findings set out here.

Series [1] has as its system Nalm-6 cells. In words: Tumor growth of transfected Nalm-6 cells injected s.c. into NOD/SCID mice. The format is in vivo. From the text: As described herein, decreased expression of miR-451 in comparison to a control level can serve as a prognostic factor for ALL relapse risk, as low expression of miR-451 at first diagnosis predicts worse outcome. […] Scrambled miRNA-transfected cells served as negative control (Nalm-6/miR-NC). Quantitative reverse transcription PCR (RT-qPCR) was used to confirm miR-451 expression in the transfected cells.
To further study the putative tumor-suppressive function of hsa-miR-451 in vivo, 10^7 viable Nalm-6 cells either untransfected, transfected in vitro with miR-451 mimic, or transfected with scrambled miR (control), were injected sub-cutaneously (s.c.) into the right flanks of 6-week-old female NOD/SCID mice. […] On day 26, the median tumor volume in the scrambled control mice and the miR-451 mimic mice were 204.69 mm^3 (SE=63.96) and 23.32 mm^3 (SE=13.12), respectively (p=0.019). At the end of the experiment, mice were sacrificed, and the tumors were weighted. The median tumor weight in the scrambled control mice and the miR-451 mimic mice were 0.0966 gr (SE=0.040) and 0.0159 gr (SE=0.0009), respectively (p=0.046) (FIG. 4C).

Series [2] relates to Nalm-6 cells. Nature of the series: Annexin V-FITC apoptosis assay in Nalm-6 cells. Type of series: cell-based. As to conditions: NALM-6 cells, transient expression. From the text: Cells were stained with annexin V-fluorescein-5-isothiocyanate (FITC) conjugated antibody and propidium iodide (PI) using the Annexin V-FITC Apoptosis Detection Kit (ab14085, Abcam® Incorporated, Cambridge, Mass., USA) according to manufacturer's instructions (see, for example, https://www.abcam.com/ps/products/14/ab14085/documents/ab14085%20Annexin %20V%20FITC%20Apoptosis%20Detection%20Kit%20v4%20(website).pdf), and read on the flow cytometer. Annexin V Apoptosis Detection Kit is based on the observation that soon after initiating apoptosis, cells translocate the membrane phosphatidylserine (PS) from the inner face of the plasma membrane to the cell surface. Once on the cell surface, PS can be easily detected by staining with a fluorescent conjugate (e.g., FITC) of Annexin V, a protein that has a high affinity for PS. The one-step staining procedure takes only 10 minutes. When performing both Annexin V-FITC and PI staining, it is possible to differentiate apoptosis vs necrosis.
(§1) To measure the effect of NAD^+ depletion following FK866 treatment of Nalm-6 cells, apoptosis and viability were measured as described in Materials and Methods. Nalm-6 cells were treated for 48 hours with 1 nM FK866, and then apoptosis was measured using FACS.

Series [3] relates to Nalm-6 cells. In words: XTT cell viability assay in Nalm-6 cells. The format is cell-based. As to conditions: NALM-6 cells, transient expression. The protocol: Cell viability assay was performed using the Cell Proliferation Kit comprising the second-generation tetrazolium dye, XTT. Viable cells with active metabolism convert XTT into an orange colored reduction product, whereas dead cells lose the ability to reduce XTT, thus, color formation serves as a useful and convenient marker of only the viable cells.
The XTT kit was applied to NALM6 transfected cells according to the manufacturer's protocol (Biological Industries, Kibbutz Beit Haemek, Israel). Cells were incubated for 3 hours with the XTT reagent and quantity of reduced XTT (directly proportional to the number of viable cells) was assessed by recording changes in absorbance as measured on a microplate reader at 450-500 nm optical density (OD).
as §1
For orientation: Tetrazolium dyes change colour on reduction, which living cells bring about.

In series [4] the test system is CXCL16. Nature of the series: Western blot of CXCL16 in transfected NALM-6 cells. Type of series: cell-based. As to conditions: NALM-6 transient. The source says:
Protein was extracted from NALM-6 cell line using Qproteome™ lysis buffer (Qiagen, Hilden, Germany). The membrane was then probed with one or more of the following antibodies: anti-disintegrin and metalloproteinase domain-containing protein 10 (ADAM10) (1:1000) (Abcam; Cambridge, UK) (see Example 9); anti-chemokine C-X-C motif 16 (CXCL16) (1:1000); anti-NAMPT (1:1000); and anti-GAPDH (1:5000) (Santa Crus Biotechnology, Santa Crus, Calif., USA) (see Examples 5 and 9). The secondary antibodies were goat anti-mouse and goat anti-rabbit (1:10,000) (Sigma®, Saint Louis, Mo., USA), for each antigen according to the manufacturer's instructions. […]
Intensity of the protein band was measured using an in-house program. […]
Possible miR-451 targets were evaluated using several open access software programs (e.g., Targetscan, PicTar, miRanda, miRDB). […] In the first screening, the suppression of ADAM10, CXCL16 and NAMPT protein level was analyzed in NALM-6 cells transiently expressing miR-451 mimic (SEQ ID NO: 2) and in cells transiently expressing scrambled-miR (universal sequence; negative control) by Western blot as described in Materials and Methods. […]
Background: In western blotting, separated proteins are transferred to a membrane and probed.

Consider “miR-451 mimic: a dsmiR-451 designed to copy or mimic the functionality of mature endogenous miR-451 upon transfection (AAACCGUUACCAUUACUGAGUU; double-stranded mimic, further chemistry not given here; listed as Homo sapiens)”, for which the “tumor growth vs scrambled miR control cells” value in series [1] (after 20 days) is listed as “significantly decreased tumor growth”. Also, the median tumor volume in series [1] (day 26, 10^7 transfected Nalm-6 cells s.c., female NOD/SCID mice) is 23.32 mm^3. For the same substance, the median tumor weight in series [1] (end of the experiment) is on record as 0.0159 gr. For the same substance, in series [2], the “effect on apoptosis rate” value is listed as “No effect”. The effect on viability entry in series [3] is recorded as “No effect”. For the same substance, in series [4], the “CXCL16 protein level compared to scrambled-miR” value was “only NAMPT protein expression levels were reduced”.
